Experimental data taken from publication PMC3298089 (Journal of Medicinal Chemistry, 2012).

What was measured:
[1] = system: AKR1C3 mediated production of testosterone in LNCaP-AKR1C3 cells; test: LNCaP-AKR1C3 mediated formation of testosterone from [14C]-Δ4-AD; assay type: cell-based, human; settings: 10 μM inhibitor, 0.1 μM [14C]-Δ4-AD, 48 h, relative to control
AKR1C3 = target: T1, AKR1C3 (Homo sapiens, UniProt P42330); test: Inhibition of NADP+ dependent oxidation of S-tetralol catalyzed by AKR1C3; assay type: biochemical
T1 sequence (P42330 1-323): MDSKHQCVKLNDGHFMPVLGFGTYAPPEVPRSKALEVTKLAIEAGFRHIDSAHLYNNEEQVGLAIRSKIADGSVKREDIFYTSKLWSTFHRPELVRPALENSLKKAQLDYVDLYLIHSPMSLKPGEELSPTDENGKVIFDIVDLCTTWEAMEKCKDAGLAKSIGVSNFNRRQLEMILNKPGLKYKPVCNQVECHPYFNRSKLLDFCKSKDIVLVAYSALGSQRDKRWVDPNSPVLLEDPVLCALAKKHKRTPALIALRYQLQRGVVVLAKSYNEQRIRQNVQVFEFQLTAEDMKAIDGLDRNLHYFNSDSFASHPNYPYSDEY

AKR1C2 = target: T2, AKR1C2 (Homo sapiens, UniProt P52895); test: Inhibition of NADP+ dependent oxidation of S-tetralol catalyzed by AKR1C2; assay type: biochemical; settings: selectivity for AKR1C3; high value = high selectivity
T2 sequence (P52895 1-323): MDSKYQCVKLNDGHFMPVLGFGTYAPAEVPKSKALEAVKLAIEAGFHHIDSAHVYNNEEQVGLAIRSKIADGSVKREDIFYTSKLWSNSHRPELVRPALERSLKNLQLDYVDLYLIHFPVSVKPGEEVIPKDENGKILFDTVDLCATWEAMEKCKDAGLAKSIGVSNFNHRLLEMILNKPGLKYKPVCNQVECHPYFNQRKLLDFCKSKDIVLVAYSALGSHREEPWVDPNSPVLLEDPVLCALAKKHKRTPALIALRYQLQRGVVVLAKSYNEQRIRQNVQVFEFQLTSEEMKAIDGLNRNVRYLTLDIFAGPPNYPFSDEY

| IC50 (AKR1C3) [nM] | Ratio IC50 1C2:1C3 (AKR1C2) | SMILES | further results |
| --- | --- | --- | --- |
| – | – | CC(=O)c1ccc(Nc2cccc(C(=O)O)c2)c(C(=O)O)c1 [Compound 4w] | inhibition of testosterone production in LNCaP-AKR1C3 cells [1]: Almost identical results |
| 33 | – | O=C(O)c1cccc(Nc2ccc([N+](=O)[O-])cc2)c1 [Compound 4m] | – |
| – | >25 | O=C(O)c1ccc(Nc2ccc(Br)cc2)cc1 [Compound 5l] | – |
| – | >28.0 | O=C(O)c1cccc(Nc2cccc(C(=O)O)c2)c1 [Compound 4l] | – |
| – | >24 | O=C(O)c1ccc(Nc2cccc([N+](=O)[O-])c2)cc1 [Compound 5d, 4-((3-nitrophenyl)amino)benzoic acid] | – |
| 38 | – | CC(C)(C)c1ccc(Nc2ccccc2C(=O)O)cc1 [Compound 1o] | – |
